Laboratory results: PubChem BioAssay (NCI)
Values joined by “and” are separate entries in the source; they are usually repeats but may differ in a detail not shown here. Equal values may be shown once.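 1) Cells in 96-well plates. 2) Compound, 48 h, 5 concentrations. 3) Linear interpolation between surrounding doses. 4) Unreached endpoint = highest concentration. Here, GI50 denotes the concentration required for 50% inhibition of growth. TGI denotes the concentration required for complete inhibition of growth.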

What was measured:
Assay in all cases: NCI tumour cell line growth inhibition, 48 h
[1] = tested on: OVCAR-8 ovarian
[2] = tested on: SF-539 CNS
[3] = tested on: SF-295 CNS
[4] = tested on: M14 melanoma
[5] = tested on: T-47D breast
[6] = tested on: HCT-15 colon
[7] = tested on: TK-10 renal
[8] = tested on: HOP-92 NSCLC
[9] = tested on: MDA-MB-435
[10] = tested on: OVCAR-4 ovarian

SMILES: CCCC1=C(C(=O)OCC)C(c2ccccc2OC)C(C#N)=C(N)O1 (stereo not drawn)
- GI50 [1]: 43.8 µM
- TGI [1]: > 100 µM
- GI50 [2]: 39.8 µM
- TGI [2]: > 100 µM
- GI50 [3]: 84 µM
- TGI [3]: > 100 µM
- GI50 [4]: 34.2 µM
- TGI [4]: > 100 µM
- GI50 [5]: 43.4 µM
- TGI [5]: > 100 µM
- GI50 [6]: 50.3 µM
- TGI [6]: > 100 µM
- GI50 [7]: 46.1 µM
- TGI [7]: > 100 µM
- GI50 [8]: 37.7 µM
- TGI [8]: > 100 µM
- GI50 [9]: 46.3 µM
- TGI [9]: > 100 µM
- GI50 [10]: 65.4 µM
- TGI [10]: > 100 µM

SMILES: CC(=O)N1CC(=O)NC1=S
- TGI [1]: > 100 µM
- TGI [2]: > 100 µM
- TGI [3]: > 100 µM
- TGI [4]: > 100 µM
- TGI [6]: > 100 µM
- TGI [7]: > 100 µM
- TGI [8]: > 100 µM
- TGI [10]: > 100 µM

SMILES: Nc1cccc2c1C1=NNC(=O)CC1C2 (stereo not drawn)
- TGI [1]: > 100 µM
- TGI [2]: > 100 µM
- TGI [3]: > 100 µM
- TGI [6]: > 100 µM
- TGI [8]: 4.46 µM
- TGI [10]: > 100 µM

SMILES: C[C@H](N[C@H]1CCC[C@]1(O)C#Cc1ccc2c(c1)OCO2)c1ccccc1
- TGI [1]: > 25 µM
- TGI [3]: > 25 µM
- TGI [4]: > 25 µM
- TGI [5]: > 25 µM
- TGI [6]: > 25 µM
- TGI [7]: > 25 µM
- TGI [8]: > 25 µM
- TGI [9]: > 25 µM
- TGI [10]: > 25 µM

SMILES: COc1cc2c(cc1OC)C1Cc3cc(OC)c(OC)cc3C(C2)O1
- TGI [1]: > 100 µM
- TGI [2]: > 100 µM
- TGI [3]: > 100 µM
- TGI [4]: > 100 µM
- TGI [5]: > 100 µM
- TGI [7]: > 100 µM
- TGI [8]: > 100 µM
- TGI [9]: > 100 µM
- TGI [10]: > 100 µM

SMILES: COc1cc(NC(=O)CSc2nc3ccccc3c(=O)n2CCc2ccccc2)cc(OC)c1OC
- GI50 [1]: 2.7 µM
- TGI [1]: > 100 µM
- GI50 [3]: 3.21 µM
- TGI [3]: 15.3 µM
- GI50 [4]: 5.49 µM
- TGI [4]: > 100 µM
- GI50 [7]: 1.81 µM
- TGI [7]: 3.81 µM
- GI50 [8]: 0.587 µM
- TGI [8]: 3.44 µM

SMILES: CNS(=O)(=O)c1ccc2[nH]c(O)c(C3=Nc4ccccc4C3=O)c2c1
- TGI [3]: > 100 µM
- TGI [4]: > 100 µM
- TGI [5]: > 100 µM
- TGI [6]: > 100 µM
- TGI [7]: > 100 µM
- TGI [9]: > 100 µM

SMILES: Cc1ccc2ccc3ccc(C)nc3c2n1
- TGI [1]: > 100 µM
- TGI [2]: > 100 µM
- TGI [3]: > 100 µM
- TGI [4]: > 100 µM
- TGI [5]: > 100 µM
- TGI [6]: > 100 µM
- TGI [7]: > 100 µM
- TGI [8]: > 100 µM
- TGI [9]: > 100 µM
- TGI [10]: > 100 µM

SMILES: CCOC(=O)C(=O)Nc1c(CC)cccc1C(C)CC (stereo not drawn)
- TGI [1]: > 100 µM
- TGI [2]: > 100 µM
- TGI [3]: > 100 µM
- TGI [4]: > 100 µM
- TGI [6]: > 100 µM
- TGI [7]: > 100 µM
- TGI [8]: > 100 µM
- TGI [10]: > 100 µM

SMILES: NC(=O)Nc1ccc(C(=O)NCCCNC(=O)c2ccc(NC(N)=O)cc2)cc1
- TGI [1]: > 100 µM
- TGI [2]: > 100 µM
- TGI [4]: > 100 µM
- TGI [5]: > 100 µM
- TGI [6]: > 100 µM
- TGI [7]: > 100 µM
- TGI [8]: > 100 µM
- TGI [9]: > 100 µM
- TGI [10]: > 100 µM

SMILES: O=C(NCCNc1nccc(-c2c(-c3cccc(O)c3)nc3sccn23)n1)Nc1cccc(C(F)(F)F)c1
- GI50 [1]: 3.56 µM
- TGI [1]: 11 µM
- GI50 [2]: 13.1 µM
- TGI [2]: 36.9 µM
- GI50 [3]: 4.16 µM
- TGI [3]: 29.7 µM
- GI50 [4]: 1.79 µM
- TGI [4]: 3.39 µM
- GI50 [5]: 6.52 µM
- TGI [5]: 25.6 µM
- GI50 [6]: 4.26 µM
- TGI [6]: 24.1 µM
- GI50 [7]: 3.66 µM
- TGI [7]: 11.1 µM
- GI50 [8]: 2.19 µM
- TGI [8]: 9.38 µM
- GI50 [9]: 2.04 µM
- TGI [9]: 4.94 µM
- GI50 [10]: 3.97 µM
- TGI [10]: 14.2 µM

SMILES: C=Cc1cc(OC)c2c(c1)c(=O)oc1c2cc(OC)c2c(O)ccc(C3OC(C)C(O)C(C)(O)C3O)c21 (stereo not drawn)
- GI50 [1]: 0.000476 µM
- GI50 [2]: 0.000153 µM
- GI50 [3]: 0.000699 µM
- TGI [3]: 0.0099 µM and 0.0593 µM
- TGI [4]: 0.00162 µM
- TGI [5]: 0.00439 µM
- GI50 [6]: 0.000552 µM
- TGI [6]: 0.467 µM
- TGI [7]: 0.00855 µM
- GI50 [8]: 0.000215 µM
- TGI [8]: 0.24 µM
- TGI [9]: 0.00365 µM
- GI50 [10]: 0.00215 µM
